PMC12397248, “Proanthocyanidins inhibit CYP1B1 through mixed-type kinetics and stable binding in molecular dynamics simulations” (Scientific Reports, 2025)
Each block holds one molecule with its values, some of them ahead of it.

Experiments:
[1] = target: T1, Cytochrome P450 1B1 (CYP1B1) (Homo sapiens, UniProt Q16678); assay: recombinant human CYP1B1 ethoxyresorufin O-deethylation fluorescence assay; Michaelis-Menten and Lineweaver-Burk kinetics; assay type: biochemical
T1 sequence (Q16678 1-543): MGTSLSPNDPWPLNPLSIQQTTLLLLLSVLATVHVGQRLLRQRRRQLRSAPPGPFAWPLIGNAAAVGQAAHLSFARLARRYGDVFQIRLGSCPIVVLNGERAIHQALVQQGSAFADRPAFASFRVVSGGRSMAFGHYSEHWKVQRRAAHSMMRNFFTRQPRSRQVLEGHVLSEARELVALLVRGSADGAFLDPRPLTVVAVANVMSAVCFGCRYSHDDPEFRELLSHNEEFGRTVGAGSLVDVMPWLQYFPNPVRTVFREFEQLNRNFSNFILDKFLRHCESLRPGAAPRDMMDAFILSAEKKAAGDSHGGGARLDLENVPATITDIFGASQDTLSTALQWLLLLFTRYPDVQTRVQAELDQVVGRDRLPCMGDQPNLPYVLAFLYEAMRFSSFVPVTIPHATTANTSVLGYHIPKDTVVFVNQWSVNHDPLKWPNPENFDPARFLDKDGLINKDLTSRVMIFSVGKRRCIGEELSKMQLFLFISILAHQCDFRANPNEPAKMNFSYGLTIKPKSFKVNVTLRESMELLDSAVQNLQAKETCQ

[2] = substrate: CCOc1ccc2nc3ccc(=O)cc-3oc2c1; assay: Michaelis-Menten kinetics of O-deethylation by recombinant CYP1B1 (Km); assay type: biochemical, Homo sapiens; conditions: heme; NADPH

IC50 [1]: 2.53 ± 0.01 µM
Molecule: proanthocyanidin [PA]

B1: Cytochrome P450 1B1 (CYP1B1) (Homo sapiens) (protein)
chain: T1 sequence (Q16678 1-543)
Km [2]: 236 ± 74 µM
